Experimental data reported in patent publication US7256209B2, “Pyrazole derivatives and diabetic medicine containing them” (Ajinomoto Co., Inc., priority 2000, dated 2007).

What was measured:
male Wistar rats [1] = assay: Activity on rat's sugar urine excretion; assay type: in vivo; settings: for The amount of excreted glucose in urine: 100 mg/kg oral, urine collected 24 hours, per day and individual; for activity on urinary glucose excretion as compared to Example 35 of WO01/16147 (in words): compared to Referential Example 1, Table 2; for activity on urinary glucose excretion (in words): oral administration, rat
Method: 5-week old male Wistar rats (purchased from Charles River Japan, Inc.) were used in the experiment after they were housed in a metabolic cage for about one week in advance. The test compounds were suspended in olive oil and 20 mg/ml solution was prepared so that the dosage given per 1 kg of the weight of the rats was 5 ml.
After the rats were not fed for 4 hours, the test compounds were orally administered to them at 11 a.m. Their urine was collected, from that taken just after the administration to that taken 24 hours after the administration and its volume was measured. Then, the concentration of glucose in urine was measured by glucose oxidase method and urinary glucose excreted per a day and an individual was calculated.

[2] = test system: Renal brush border membrane glucose uptake; assay: Inhibiting activity on renal brush border membrane glucose uptake; assay type: biochemical; settings: rat renal brush border membrane, sodium-dependent 14C-D-glucose uptake
Method: The test compound was dissolved in 100 mM Mannitol-10 mM HEPES/Tris (pH 7.4) and solutions having various concentrations were prepared.
Renal brush border membrane was prepared from a rat kidney and the solutions of the test compounds were added thereto and the product was incubated at 37° C. for 30 minutes. Then ^14C-D-glucose was added and the mixture was incubated for 1 minute. After tie reaction of glucose uptake was stopped by a solution containing 1 mM of phloridzin, the activity of ^14C-D-glucose on ^14C was measured by a liquid scintillation counter. The intensity of inhibition was calculated by subtracting the amount of taken glucose that is independent on sodium from the amount of taken glucose of the object samples.

male Wistar rats [3] = assay: Activity on rat's sugar urine excretion; assay type: in vivo; settings: for The amount of excreted glucose in urine: urine collected 24 hours, per day and individual

| Compound | The amount of excreted glucose in urine (male Wistar rats [1]) | activity on urinary glucose excretion as compared to Example 35 of WO01/16147 (in words) (male Wistar rats [1]) | activity on urinary glucose excretion (in words) (male Wistar rats [1]) | other results |
| --- | --- | --- | --- | --- |
| CCc1ccc(Cc2c(O[C@@H]3O[C@H](COC(=O)OC)[C@@H](O)[C@H](O)[C@H]3O)nn(-c3ccccc3)c2C(F)(F)F)cc1 [Example Compound 8, 4′-[(4′-ethylphenyl)methyl]-1′-phenyl-5′-trifluoromethyl-1H-pyrazole-3′-O-(6-carbomethoxy)-β-D-glucopyranoside] | 4.1 mg | – | – | – |
| CCc1ccc(Cc2c(O[C@@H]3O[C@H](C(=O)O)[C@@H](O)[C@H](O)[C@H]3O)n[nH]c2C(F)(F)F)cc1 [Example Compound 2, 4-((4-ethylphenyl)methyl)-5-(trifluoromethyl)-1H-pyrazole-3-yl-O-β-D-glucopyranoside uronic acid] | – | – | – | Inhibition intensity (concentration of the test compounds) ([2]; 100 μM test compound): 30% (100 μM) |
| CCc1ccc(Cc2c(O[C@@H]3O[C@H](COC(=O)OC)[C@@H](O)[C@H](O)[C@H]3O)nn(Cc3ccc(OC)cc3)c2C(F)(F)F)cc1 [Example Compound 6, 4′-[(4′-ethylphenyl)methyl]-1′-[(4′-methoxyphenyl)methyl]-5′-trifluoromethyl-1H-pyrazole-3′-O-(6-carbomethoxy)-β-D-glucopyranoside] | 59 mg | – | – | – |
| Cc1[nH]nc(O[C@@H]2O[C@H](CO)[C@@H](O)[C@H](O)[C@H]2O)c1Cc1ccc(OC(C)C)cc1 [Referential Example Compound 1, 4-[(4-isopropoxyphenyl)methyl]-5-methyl-1H-pyrazole-3-O-β-D-glucopyranoside, reference compound] | 14 mg | – | – | – |
| CCc1ccc(Cc2c(O[C@@H]3O[C@H](COC(=O)OC)[C@@H](O)[C@H](O)[C@H]3O)nn(C(C)C)c2C)cc1 [Example Compound 16, 4′-[(4-ethylphenyl)methyl]-1′-isopropyl-5′-methyl-1H-pyrazole-3′-O-(6-carbomethoxy)-β-D-glucopyranoside] | 598 mg | much higher activity | particularly high activity | The amount of excreted glucose in urine (male Wistar rats [3]; 3 mg/kg oral): 28 mg; The amount of excreted glucose in urine (male Wistar rats [3]; 10 mg/kg oral): 263 mg; The amount of excreted glucose in urine (male Wistar rats [3]; 30 mg/kg oral): 294 mg; activity on urinary glucose excretion (in words) (male Wistar rats [3]; orally administered in lower doses such as 30 mg/kg or lower): still has high activity |
| CSc1ccc(Cc2c(O[C@@H]3O[C@H](CO)[C@@H](O)[C@H](O)[C@H]3O)n[nH]c2C(F)(F)F)cc1 [Example Compound 1, 4-((4-methylthiophenyl)methyl)-5-(trifluoromethyl)-1H-pyrazole-3-O-β-D-glucopyranoside] | – | – | – | Inhibition intensity (concentration of the test compounds) ([2]; 10 μM test compound): 84% (10 μM) |
| COC(=O)OC[C@H]1O[C@@H](Oc2nn(C(C)C)c(C)c2Cc2ccc(OC)c(F)c2)[C@H](O)[C@@H](O)[C@@H]1O [Example Compound 10, 4′-[(3′-fluoro-4′-methoxyphenyl)methyl]-1′-isopropyl-5′-methyl-1H-pyrazole-3′-O-(6-carbomethoxy)-β-D-glucopyranoside] | 734 mg | much higher activity | particularly high activity | – |
| COC(=O)OC[C@H]1O[C@@H](Oc2nn(C(C)C)c(C)c2Cc2ccc(C)c(F)c2)[C@H](O)[C@@H](O)[C@@H]1O [Example Compound 14, 4′-[(3′-fluoro-4′-methylphenyl)methyl]-1′-isopropyl-5′-methyl-1H-pyrazole-3′-O-(6-carbomethoxy)-β-D-glucopyranoside] | 918 mg | much higher activity | particularly high activity | – |
| CCc1ccc(Cc2c(O[C@@H]3O[C@H](COC(=O)OC)[C@@H](O)[C@H](O)[C@H]3O)nn(Cc3ccccc3)c2C(F)(F)F)cc1 [Example Compound 4, 4′-[(4′-ethylphenyl)methyl]-1′-benzyl-5′-trifluoromethyl-1H-pyrazole-3′-O-(6-carbomethoxy)-β-D-glucopyranoside] | 27 mg | – | – | – |
